Experiments:
[1] = test system: sheep model of diffuse traumatic brain injury; experiment: Brain tissue oxygenation (PbtO2) in the sheep model of diffuse traumatic brain injury; assay type: in vivo
Excerpt: (§1) Briefly, 2-year-old male Merino sheep were impacted in the left temporal region by a humane stunner. Sheep were continuously anesthetized and ventilated using 2.5% isoflurane in oxygen (4 L/min). Animals were then placed into a prone sphinx position, and restrained to the table, leaving the neck and head mobile relative to the body. Impact injury was induced at the midpoint between the left supraorbital process and the left external auditory meatus using a Captive humane bolt stunner armed with a number 7 red charge (model KML, Karl Schermer & Co., Germany). The injury produced by this method has been fully characterised, and mimics that seen in human TBI victims. (Lewis, S. B., Finnie, J. W., Blumbergs, P. C., Scott, G., Manavis, J. Brown, C., Reilly, P. L., Jones, N. R., McLean, A. J. (1996) A head impact model of early axonal injury in the sheep. J Neurotrauma 13, 505-514.)
The injury was carried out in sheep as previously described. In addition to the burr hole for ICP monitoring, a second burr hole 1 cm lateral to the sagittal midline and over the left fronto-parietal suture allowed insertion of the distal end of a LICOX® PbtO2 probe to a depth of 2 cm. The probe was attached to a LICOX® brain tissue oxygen monitoring system (Integra, USA) for digital recording. After insertion of the probes, both burr holes were sealed using bone wax. ICP and PbtO2 was recorded every 30 min for a period of 4 hours.

[2] = test system: rat diffuse traumatic brain injury model; experiment: ICP after diffuse traumatic brain injury plus hypoxia in the rat; assay type: in vivo; conditions: male Sprague Dawley rats, diffuse TBI + 15 min hypoxia
Method: Male Sprague Dawley rats were injured using a diffuse traumatic brain injury model, and then made hypoxic for a period of 15 minutes, before being ventilated on normal air. ICP was monitored using a Codman ICP pressure sensor for the ensuing 4 hours. After injury, ICP increased from a mean of 4.88±0.12 mm Hg to a mean of 9.23±0.28 mm Hg, an increase of 96%. Treatment with the NK1 antagonist, NAT, reduced ICP by a mean value 21%. […] Male Sprague Dawley rats were injured using the widely accepted diffuse traumatic brain injury model, and then made hypoxic for a period of 15 minutes, before being ventilated on normal air. ICP was monitored using a Codman ICP pressure sensor for the ensuing 4 hours. After injury, ICP increased from a mean of 4.88±0.12 mm Hg to a mean of 9.23±0.28 mm Hg, an increase of 96%. Treatment with the NK1 antagonist, NAT, reduced ICP by a mean value 21% (FIG. 6).

[3] = test system: sheep model of diffuse traumatic brain injury; experiment: Intracranial pressure in the sheep model of diffuse traumatic brain injury; assay type: in vivo; conditions: administered at 30 min after injury
Method: Following traumatic injury, intracranial pressure was measured in the sheep using a standard neurosurgical “bolt” and pressure transducer (FIG. 3).
as §1
After injury, animals were stabilised and the heads restrained to the operating table to facilitate insertion of intracranial pressure (ICP) and brain tissue oxygenation (PbtO2) probes between 15 and 30 min after trauma. Following exposure of the skull, a 5.8 mm burr hole was performed at a point 4 cm lateral to the sagittal midline on the ipsilateral side, the dura matter opened and a calibrated Codman Microsensor ICP transducer inserted such that the tip of the sensor was 1.5 cm into the parenchyma of the left parietal lobe. The probe was attached to a Codman ICP Express monitoring system (Codman and Shurtleff Inc., USA) for digital recording.

[4] = test system: blood brain barrier permeability after injury; experiment: Attenuation of blood brain barrier permeability after injury (dose finding); assay type: in vivo, rat; conditions: intravenous, 30 min after induction of injury
Method: N-acetyl-tryptophan was dissolved in sterile, normal saline, and administered by intravenous injection at 30 min after induction of injury. […] The optimal dose, based on the ability of the drug to attenuate blood brain barrier permeability after injury, was 2.5 mg/kg.

aquaporin 4 (AQP-4) = experiment: Perivascular AQP-4 immunostaining (electron microscopy) after diffuse traumatic brain injury; assay type: in vivo; conditions: rat diffuse TBI, intravenous injection at 30 min after injury, 5 h after injury
Excerpt: We decided to study the water channels associated with the cerebral vasculature, and in particular aquaporin 4 (AQP-4), in order to see whether there were any changes in the expression of these channels. For these studies, a rat model was used, and raised ICP was induced by diffuse traumatic brain injury. In this model, a traumatic brain injury was induced using the impact-acceleration model. Briefly, the impact-acceleration device delivers an accelerating blow centrally on to the dorsal surface of the skull of halothane anesthetized male Sprague-Dawley rats (380-420 g). The point of impact was protected with a stainless steel disc to prevent skull fracture, while the head was subsequently decelerated using either a foam or gel filled cushion. For severe injury, the 450 g brass weight is dropped from a height of 2 metres. The impact results in extensive, diffuse neuropathological damage throughout the brain with associated neurological deficits. Immunohistochemical labelling was used to investigate the expression of aquaporin-4 (FIG. 1). Briefly, electron microscopy of AQP-4 used a rabbit polyclonal antibody (Alpha Diagnostic International, Inc., San Antonio) as the primary antibody, with immunolabelling completed using biotinylated secondary antibody (goat anti-rabbit IgG) and streptavidin-peroxidase complex (Rockland, Gilbertsville, Pa.). […]

[5] = test system: rat model of traumatic brain injury; experiment: Diffusion weighted imaging of cerebral oedema after severe diffuse traumatic brain injury; assay type: in vivo; conditions: severe diffuse TBI, treatment 30 min after insult, 10^-5 mol/kg, imaged 5 h after injury
Excerpt: After a traumatic injury (left-hand panel), areas of hyperintensity reflect an increased ADC, which at this early time point is indicative of vasogenic edema.
In order to observe whether a substance P receptor antagonist could facilitate the movement of water out of the brain, we carried out nuclear magnetic resonance spectroscopy (NMR) studies using a rat model of traumatic brain injury. Diffusion-weighted NMR images were generated following trauma (FIG. 2, left-hand panel).
Following injury, a number of “brighter” areas are clearly visible within the brain. These “bright” areas correlate with regions where extracellular water is gathering within the brain.

Structure (SMILES): CC(=O)N[C@@H](Cc1c[nH]c2ccccc12)C(=O)O [N-acetyl-L-tryptophan]
- time for brain oxygen levels to be back to normal limits ([1]; NK1 receptor antagonist after injury): 3 to 4 h
- effect on brain oxygen levels ([1]; administered at 30 min after injury, listed as N-Acetyl Tryptophan): Restores Oxygen Levels to Normal
- effect on brain oxygen levels ([1]; administered at 30 min after injury, listed as NK1 antagonist): immediate improvement in brain oxygen status
- effect on brain oxygen levels ([1]; administered at 30 min after injury, listed as NK1 receptor antagonist): oxygen levels start to rapidly recover
- time after TBI by which brain oxygen values returned to normal (control) levels ([1]; administered at 30 min after injury, time after TBI): ≤ 4 h
- functional outcome relative to vehicle treated controls [2]: significant improvement in functional outcome
- mean reduction of ICP ([2]; ICP monitored 4 hours): 21%
- effect on intracranial pressure (ICP) ([3]; listed as N-Acetyl Tryptophan): Reduces Intracranial Pressure
- effect on intracranial pressure (ICP) ([3]; listed as NK1 antagonist): immediately decrease in ICP
- time for ICP to return to normal (sham) levels after administration ([3]; listed as NK1 antagonist): 3 h
- effect on intracranial pressure (ICP) ([3]; listed as NK1 receptor antagonist): ICP always fell
- time for ICP to return to normal (sham) levels after administration ([3]; listed as NK receptor antagonist): 3 to 4 h
- optimal dose, based on ability to attenuate blood brain barrier permeability after injury [4]: 2.5 mg/kg
- expression of aquaporin-4 (perivascular AQP-4 channels) (aquaporin 4 (AQP-4)): rise in the expression of aquaporin-4 to, or indeed above, pre-injury levels
- expression of aquaporin-4 (perivascular AQP-4 channels) (aquaporin 4 (AQP-4); listed as NAT): rapid restoration of AQP-4 channels
- cerebral oedema (areas of hyperintensity / water gathering) on diffusion-weighted images [5]: no indication of any water gathering in these areas
- cerebral oedema (areas of hyperintensity / water gathering) on diffusion-weighted images ([5]; listed as NK1 antagonist): clearly reduces areas of hyperintensity
